Data from PMC9146984, “A Novel Proline-Rich Cathelicidin from the Alpaca Vicugna pacos with Potency to Combat Antibiotic-Resistant Bacteria: Mechanism of Action and the Functional Role of the C-Terminal Region” (Membranes, 2022).
≈ marks a conversion by molar mass, not a printed value. Read-outs that look alike come from different tables or passages of the source. Where a SMILES comes first, the peptide text is derived from it.

Key:
E. coli BW25113 ΔmdtM = type: cell-based, Escherichia coli; settings: Mueller–Hinton broth, 24 h, 37 °C, median
Method: (§1) The reduction of resazurin to resorufin was measured.

E. coli BW25113 ΔompF = type: cell-based, Escherichia coli; settings: Mueller–Hinton broth, 24 h, 37 °C, median
Method: as §1

E. coli BW25113 ΔsbmA = type: cell-based, Escherichia coli; settings: for Minimum inhibitory concentration, E. coli strain ΔsbmA: Mueller–Hinton broth, 24 h, 37 °C, median
Method: as §1

E. coli BW25113 = type: cell-based, Escherichia coli; settings: BW25113, 24 h
Method: as §1

B. subtilis B-886 = assay: Antimicrobial assay (MIC); type: cell-based, Bacillus subtilis; settings: Mueller-Hinton broth supplemented with 0.9% NaCl
Method: as §1

[1] = system: E. coli ML-35p cytoplasmic membrane; assay: Cytoplasmic membrane permeabilization (ONPG hydrolysis); type: cell-based, Escherichia coli
Method: To examine the ability of the peptides to affect the barrier function of the cytoplasmic bacterial membrane, we slightly modified the previously described procedure with the use of the E. coli ML-35p strain constitutively expressing cytoplasmic β-galactosidase but lacking lactose permease. The state of the E. coli ML-35p inner membrane was assessed based on its permeability to chromogenic marker o-nitrophenyl-β-D-galactopyranoside (ONPG, AppliChem, Darmstadt, Germany), which is the β-galactosidase substrate. The cells were incubated in the trypticase soy broth (TSB) for 16 h at 37 °C, washed three times with phosphate-buffered saline (PBS, pH 7.4) to remove residual growth media, adjusted to the concentration of 2.5 × 10^8 CFU/mL, and stored on ice until used. The assay was performed in PBS as well. The final concentration of E. coli ML-35p cells was 2.5 × 10^7 CFU/mL. The concentration of ONPG was 2.5 mM. Peptide samples were placed in the wells of a 96-well plate with a non-binding surface (NBS, Corning #3641), and the optical density (OD) of the solution rose due to the appearance of o-nitrophenol was measured at 405 nm using a microplate reader AF2200 (Eppendorf, Hamburg, Germany). The final volume in each well was 200 µL. Assays were performed at 37 °C under stirring at 500 rpm. Control experiments were performed under the same conditions without adding a peptide. Two independent experiments were performed, and the curve pattern was similar.

PBMC = assay: Cytokine response (multiplex xMAP immunoassay); type: cell-based, human; settings: 2 µM peptide, 24 h
Method: (§2) Acute monocytic leukemia THP-1 line (ATCC TIB-202) was cultured in complete RPMI 1640 medium (Invitrogen, Waltham, MA, USA) containing 10% FBS, 1× antibiotic-antimycotic solution (Invitrogen, Waltham, MA, USA), and 0.05 mM β-mercaptoethanol, in the CO2-incubator (5% CO2, 37 °C). THP-1 cells were differentiated into proinflammatory macrophages (MΦ1) according to the previously reported protocol. Primary peripheral blood mononuclear cells (PBMC) collected from a healthy donor were purchased from American Type Culture Collection (ATCC PCS-800-011), thawed, and seeded into a 96-well plate one day prior to the experiment at a density of 2 × 10^5 cells/well. Two different cell subpopulations (monocytes and T-/B-/NK-lymphocytes) were isolated from PBMC based on their adherence ability. Macrophages MΦ1 were washed out and seeded into 96-well plates at a density of 10^5 cells/well one day prior to the experiment. The next day medium in each well was replaced by a fresh complete RPMI 1640 medium with or without 2 μM of cathelicidin (VicBac[1–22] or VicBac[1–39]). Cell cultures were kept in a CO2 incubator (5% CO2, 37 °C) for 24 h. Culture supernatants were collected 24 h later and stored at −70 °C degrees less than one week prior to the assessment of analytes. 27 analytes were measured at a protein level by multiplex xMAP technology using the MILLIPLEX MAP Human Cytokine/Chemokine Magnetic Bead Immunology Panel kit (HCYTOMAG-60K-27, Merck, Darmstadt, Germany): eotaxin-1/CCL11, TGFα, GM-CSF, IFNα2, IFNγ, IL-10, IL-12p40, IL-12p70, IL-13, IL-15, sCD40L, IL-17A, IL-1RA, IL-1α, IL-9, IL-1β, IL-2, IL-3, IL-4, IL-5, IL-6, IL-7, IL-8/CXCL8, IP-10/CXCL10, RANTES/CCL5, TNFα, TNFβ. Multiplex-based assay read-out was performed using the MAGPIX system (Merck) with the xPONENT 4.2 software (Merck, Darmstadt, Germany) in accordance with the manufacturer’s instruction with overnight incubation of the samples with primary antibodies. The final analysis was carried out with the MILLIPLEX Analyst v5.1 software (Merck). Measurements were performed twice for each sample. The release of the analytes in control and experimental samples were compared by unpaired two-sample t-test using GraphPad Prism v.8.0.1. The p values ≤ 0.05 were considered significant.

T-/B-/NK-lymphocytes = assay: Cytokine response (multiplex xMAP immunoassay); type: cell-based, human; settings: 2 µM peptide, 24 h
Method: as §2

primary monocytes = assay: Cytokine response (multiplex xMAP immunoassay); type: cell-based, human; settings: 2 µM peptide, 24 h
Method: as §2

[2] = system: proinflammatory macrophages (MΦ1) from THP-1; assay: Cytokine response (multiplex xMAP immunoassay); type: cell-based, human; settings: 2 µM peptide, 24 h
Method: as §2

human cells = assay: Cytokine response (multiplex xMAP immunoassay), cell type not given; type: cell-based; settings: 2 µM peptide, 24 h, control 1813 pg/mL
Method: Acute monocytic leukemia THP-1 line (ATCC TIB-202) was cultured in complete RPMI 1640 medium (Invitrogen, Waltham, MA, USA) containing 10% FBS, 1× antibiotic-antimycotic solution (Invitrogen, Waltham, MA, USA), and 0.05 mM β-mercaptoethanol, in the CO2-incubator (5% CO2, 37 °C). THP-1 cells were differentiated into proinflammatory macrophages (MΦ1) according to the previously reported protocol. Primary peripheral blood mononuclear cells (PBMC) collected from a healthy donor were purchased from American Type Culture Collection (ATCC PCS-800-011), thawed, and seeded into a 96-well plate one day prior to the experiment at a density of 2 × 10^5 cells/well. […] 27 analytes were measured at a protein level by multiplex xMAP technology using the MILLIPLEX MAP Human Cytokine/Chemokine Magnetic Bead Immunology Panel kit (HCYTOMAG-60K-27, Merck, Darmstadt, Germany): eotaxin-1/CCL11, TGFα, GM-CSF, IFNα2, IFNγ, IL-10, IL-12p40, IL-12p70, IL-13, IL-15, sCD40L, IL-17A, IL-1RA, IL-1α, IL-9, IL-1β, IL-2, IL-3, IL-4, IL-5, IL-6, IL-7, IL-8/CXCL8, IP-10/CXCL10, RANTES/CCL5, TNFα, TNFβ. Multiplex-based assay read-out was performed using the MAGPIX system (Merck) with the xPONENT 4.2 software (Merck, Darmstadt, Germany) in accordance with the manufacturer’s instruction with overnight incubation of the samples with primary antibodies. […]

S. aureus ATCC 25923 = assay: Antimicrobial assay (MIC); type: cell-based, Staphylococcus aureus; settings: Mueller–Hinton broth supplemented with 0.9% NaCl
Method: as §1

S. aureus ATCC 29213 = assay: Antimicrobial assay (MIC); type: cell-based, Staphylococcus aureus; settings: Mueller-Hinton broth supplemented with 0.9% NaCl
Method: as §1

S. aureus ATCC 6538P = assay: Antimicrobial assay (MIC); type: cell-based, Staphylococcus aureus; settings: Mueller-Hinton broth supplemented with 0.9% NaCl
Method: as §1

S. aureus MDR CI 119 = assay: Antimicrobial assay (MIC); type: cell-based, Staphylococcus aureus; settings: Mueller-Hinton broth supplemented with 0.9% NaCl
Method: as §1

[3] = system: panel of reference bacterial pathogens and antibiotic-resistant clinical isolates; settings: Mueller–Hinton broth supplemented with 0.9% NaCl
Method: Bacterial test cultures were grown in the Mueller-Hinton broth (MH; Sigma, St. Louis, MO, USA) at 37 °C to mid-log phase and then diluted with the 2× MH medium supplemented with 1.8% NaCl or without salt so that to reach a final cell concentration of 10^6 CFU/mL. 50 µL of the obtained bacterial suspension were added to aliquots of 50 µL of the peptide solutions serially diluted with sterilized 0.1% bovine serum albumin (BSA) in 96-well flat-bottom polystyrene microplates (Eppendorf #0030730011, Hamburg, Germany). […] To verify MIC values, the respiratory activity of the bacteria was determined. Briefly, 20 µL of 0.1 mg/mL resazurin (a redox indicator; Sigma, St. Louis, MO, USA) was added to the wells after 24 h of incubation, and the plate was incubated for an additional two hours. The reduction of resazurin to resorufin was measured. […] The results were expressed as the median values determined based on at least three independent experiments performed in triplicate.

## CC[C@H](C)[C@H](NC(=O)[C@H](CCCNC(=N)N)NC(=O)[C@@H](N)CCCNC(=N)N)C(=O)N[C@@H](CCCNC(=N)N)C(=O)N[C@@H](CCCNC(=N)N)C(=O)N1CCC[C@H]1C(=O)N[C@@H](CCCNC(=N)N)C(=O)N[C@@H](CC(C)C)C(=O)N1CCC[C@H]1C(=O)N[C@@H](CCCNC(=N)N)C(=O)N1CCC[C@H]1C(=O)N[C@@H](CCCNC(=N)N)C(=O)N[C@H](C(=O)N1CCC[C@H]1C(=O)N[C@@H](CCCNC(=N)N)C(=O)N1CCC[C@H]1C(=O)N[C@@H](CCCNC(=N)N)C(=O)N[C@H](C(=O)N1CCC[C@H]1C(=O)N1CCC[C@H]1C(=O)N[C@@H](CCCNC(=N)N)C(=O)N[C@H](C(=O)N1CCC[C@H]1C(=O)N[C@@H](CCCNC(=N)N)C(=O)N1CCC[C@H]1C(=O)N[C@H](C(=O)N[C@@H](CC(C)C)C(=O)N1CCC[C@H]1C(=O)N1CCC[C@H]1C(=O)N1CCC[C@H]1C(=O)N[C@@H](CCCNC(=N)N)C(=O)N[C@H](C(=O)N1CCC[C@H]1C(=O)N[C@@H](Cc1ccccc1)C(=O)N1CCC[C@H]1C(=O)N[C@@H](CCCNC(=N)N)C(=O)N[C@@H](Cc1ccccc1)C(=O)N1CCC[C@H]1C(=O)N[C@@H](CCCNC(=N)N)C(N)=O)C(C)C)C(C)C)[C@@H](C)CC)[C@@H](C)CC)C(C)C [VicBac[1-39]] (H-RRIRRPRLPRPRVPRPRIPPRIPRPVLPPPRVPFPRFPR-NH2; N-terminus assumed)
E. coli BW25113 ΔmdtM; 0.9% NaCl: +
  Minimum inhibitory concentration, E. coli strain ΔmdtM: 1 µM (≈ 4.82 µg/mL)
E. coli BW25113 ΔmdtM; 0.9% NaCl: −
  Minimum inhibitory concentration, E. coli strain ΔmdtM: 2 µM (≈ 9.64 µg/mL)
E. coli BW25113 ΔompF; 0.9% NaCl: +
  Minimum inhibitory concentration, E. coli strain ΔompF: 1 µM (≈ 4.82 µg/mL)
E. coli BW25113 ΔompF; 0.9% NaCl: −
  Minimum inhibitory concentration, E. coli strain ΔompF: 1 µM (≈ 4.82 µg/mL)
E. coli BW25113 ΔsbmA; Mueller–Hinton broth with 0.9% NaCl
  increase in MIC against ΔsbmA strain versus BW25113: 2 fold
E. coli BW25113 ΔsbmA; 0.9% NaCl: +
  Minimum inhibitory concentration, E. coli strain ΔsbmA: 2 µM (≈ 9.64 µg/mL)
E. coli BW25113 ΔsbmA; 0.9% NaCl: −
  Minimum inhibitory concentration, E. coli strain ΔsbmA: 2 µM (≈ 9.64 µg/mL)
E. coli BW25113
  Minimum inhibitory concentration, E. coli strain BW25113: 1 µM (≈ 4.82 µg/mL)
B. subtilis B-886
  MIC, B. subtilis B-886: 16 µM (≈ 77.1 µg/mL)
[1]; E. coli ML-35p, ONPG, near MIC 0.5 µM
  membrane damage effect at concentrations near the MIC value: negligible membrane damage effect
[1]; PBS, 37 °C, OD405, 2.5 mM ONPG, two independent experiments
  effect on E. coli ML-35p cytoplasmic membrane permeability for ONPG: quite moderate effect
PBMC; control 95.52 pg/mL
  IL-1RA on PBMC: 18.79 pg/mL
PBMC; control 286.63 pg/mL
  Production of RANTES/CCL5 on PBMC: 54.72 pg/mL
T-/B-/NK-lymphocytes
  CXCL10/IP-10 production in the T/B/NK culture: elevated
Primary monocytes; control 18.47 pg/mL, two biological replications
  Production of TNFα by monocytes: 11.41 pg/mL
Primary monocytes; control 163.77 pg/mL
  IL-1RA on primary monocytes: 37.82 pg/mL
Primary monocytes; control 284.28 pg/mL
  Production of RANTES/CCL5 on primary monocytes: 71.5 pg/mL
[2]; control 12.94 pg/mL, significance level quite low
  TNFα production by macrophages: 28.68 pg/mL
[2]; control 25.21 pg/mL
  IL-1RA on pro-inflammatory macrophages: 9.47 pg/mL
Human cells
  Production of IL-8/CXCL8: 1034 pg/mL
S. aureus ATCC 25923
  inhibition of S. aureus ATCC 25923: could not inhibit
S. aureus ATCC 29213
  MIC, S. aureus ATCC 29213: > 32 µM
S. aureus ATCC 6538P
  MIC, S. aureus ATCC 6538P: 0.25 µM (≈ 1.2 µg/mL)
S. aureus MDR CI 119
  MIC, S. aureus MDR CI 119: > 32 µM
[3]
  MIC values, in most cases, against panel of reference pathogens and clinical isolates: 0.25 to 8 µM
